{"source": "patent US20260248879A1", "about": "“METHODS OF USING A GCG/GLP1 CO-AGONIST FOR THERAPY” (ELI LILLY AND COMPANY, priority 2022, published 2026)", "test_system": "patients with T2DM", "test": "Example 1 study: Mixed Meal Tolerance Test (MMTT)", "assay_type": "in vivo, human", "protocol": "In respect of Cohort 1, the MMTT is performed at baseline and on Day 80. In respect of Cohort 2, the MMTT is performed at baseline and on Day 108.\nPatients are provided breakfast meals for the MMTTs. Upon awakening, patients consume water to stay hydrated in order to mitigate problems with blood sample collections. Patients are provided individualized breakfast meals for the MMTTs. The total caloric content is approximately 30% of the daily estimated caloric need for weight. The macronutrient composition of the meals is targeted to provide approximately 50% of the calories from carbohydrate, 30% of the calories from fat, and 20% of the calories from protein. Patients are fasted (except for water) for at least 8 hours before each test meal and consume each meal within approximately 20 minutes. Test meals for each patient are kept consistent with respect to calorie and nutrient content across all MMTT assessments in the study.\nFor both parts of the study, the patient is not allowed to consume water (apart from fluid provided with the meal) for approximately 3 hours post MMTT until BOD POD® measurement.\nWhile resident in the CRU, patients may not consume any food or caloric drinks other than that provided by the CRU. When not resident in the CRU, patients may resume their regular diet. The actual time of meal start and completion, total calories, and amount of meal (%) consumed in the MMTT are recorded.", "key": {"[1]": {"settings": "Cohort 1, escalated to 4.5 mg, Day 80"}, "[2]": {"settings": "Cohort 2, escalated to 10.0 mg, Day 108"}}, "note": "Values joined by “and” are separate entries in the source; they are usually repeats but may differ in a detail not shown here. Identical values can stand only once. Marks after values point to notes of the source that are not given here."}
{"smiles": "CC(C)C[C@H](NC(=O)[C@H](CC(C)C)NC(=O)[C@H](Cc1c[nH]c2ccccc12)NC(=O)[C@H](CCC(=O)O)NC(=O)[C@@H](NC(=O)[C@H](Cc1ccccc1)NC(=O)[C@H](CCC(=O)O)NC(=O)[C@H](CCCCNC(=O)COCCOCCNC(=O)COCCOCCNC(=O)CC[C@H](NC(=O)CCCCCCCCCCCCCCCCCCC(=O)O)C(=O)O)NC(=O)[C@H](C)NC(=O)[C@H](CCCCN)NC(=O)[C@H](CCCCN)NC(=O)[C@H](CCC(=O)O)NC(=O)[C@H](CC(=O)O)NC(=O)[C@H](CC(C)C)NC(=O)[C@H](Cc1ccc(O)cc1)NC(=O)[C@H](CCCCN)NC(=O)[C@H](CO)NC(=O)[C@H](Cc1ccc(O)cc1)NC(=O)[C@H](CC(=O)O)NC(=O)[C@H](CO)NC(=O)[C@@H](NC(=O)[C@H](Cc1ccccc1)NC(=O)[C@@H](NC(=O)CNC(=O)[C@H](CCC(N)=O)NC(=O)C(C)(C)NC(=O)[C@@H](N)Cc1c[nH]cn1)[C@@H](C)O)[C@@H](C)O)C(C)C)C(=O)N[C@@H](CCC(=O)O)C(=O)NCC(=O)NCC(=O)N1CCC[C@H]1C(=O)N[C@@H](CO)C(=O)N[C@@H](CO)C(=O)NCC(N)=O", "note": "[Compound 1]", "values": [{"measurement": "C-peptide AUC(0-3 h) during MMTT, mean", "setting": "Cohort 1 (1.5-4.5 mg QW), Day 80, baseline 4391.4", "result": 5850.1, "unit": "pmol·h/L"}, {"measurement": "C-peptide AUC(0-3 h) during MMTT, change from baseline", "setting": "Cohort 1, Day 80", "result": "1474.6* pmol · h/L"}, {"measurement": "Disposition index, change from baseline", "setting": "Cohort 1, Day 80", "result": "−0.235"}, {"measurement": "First PH ISI-S, change from baseline", "setting": "Cohort 1, Day 80", "result": 12090.422}, {"measurement": "Glucagon AUC(0-3 h) during MMTT, change from baseline", "setting": "Cohort 1, Day 80", "result": -32.50, "unit": "pmol·h/L"}, {"measurement": "Glucose AUC(0-3 h) during MMTT, change from baseline", "setting": "Cohort 1, Day 80", "result": -14.37, "unit": "mmol·h/L"}, {"measurement": "HOMA2-B, change from baseline", "setting": "Cohort 1, Day 80", "result": 22.971}, {"measurement": "HOMA2-IR, change from baseline", "setting": "Cohort 1, Day 80", "result": "−0.434"}, {"measurement": "ISI-M (Matsuda Index), change from baseline", "setting": "Cohort 1, Day 80", "result": 0.237}, {"measurement": "MMTT glucose AUC 0-3 hours, approximate decrease from baseline", "setting": "Cohort 1, Day 80", "result": "~40", "unit": "%"}, {"measurement": "Oxyntomodulin AUC(0-3 h) during MMTT, change from baseline", "setting": "Cohort 1, Day 80", "result": -41.594, "unit": "pmol·h/L"}, {"measurement": "Second PH ISI-S, change from baseline", "setting": "Cohort 1, Day 80", "result": 2273.29}, {"measurement": "Disposition index, mean", "setting": "Cohort 1, Day 80, baseline 1.033", "result": 0.642}, {"measurement": "ISI-M (Matsuda Index), mean", "setting": "Cohort 1, Day 80, baseline 3.568", "result": 3.567}, {"measurement": "HOMA2-IR, mean", "setting": "Cohort 1, Day 80, baseline 4.704", "result": 4.271}, {"measurement": "HOMA2-B, mean", "setting": "Cohort 1, Day 80, baseline 15.791", "result": 38.762}, {"measurement": "Glucose AUC(0-3 h) during MMTT, mean", "setting": "Cohort 1, Day 80, baseline 43.06", "result": "25.76 mmol·h/L and 25.72 mmol·h/L"}, {"measurement": "Glucagon AUC(0-3 h) during MMTT, mean", "setting": "Cohort 1, Day 80, baseline 64.98", "result": 27.93, "unit": "pmol·h/L"}, {"measurement": "Oxyntomodulin AUC(0-3 h) during MMTT, mean", "setting": "Cohort 1, Day 80, baseline 89.822", "result": 58.042, "unit": "pmol·h/L"}, {"measurement": "Second PH ISI-S (second phase Stumvoll Index), mean", "setting": "Cohort 1, Day 80, baseline −6253.26", "result": "−3634.241"}, {"measurement": "First PH ISI-S (first phase Stumvoll Index), mean", "setting": "Cohort 1, Day 80, baseline −33534.1", "result": "−19605.805"}, {"measurement": "MMTT C-peptide AUC 0-3 hours, approximate increase from baseline", "setting": "[1]", "result": "~33", "unit": "%"}, {"measurement": "MMTT glucagon AUC 0-3 hours, approximate decrease from baseline", "setting": "[1]", "result": "~57", "unit": "%"}, {"measurement": "MMTT insulin AUC 0-3 hours, approximate increase from baseline", "setting": "[1]", "result": "~51", "unit": "%"}, {"measurement": "Matsuda index (ISI-M) versus baseline", "setting": "[1]", "result": "no change from baseline"}, {"measurement": "MMTT insulin mean area under the curve 0-3 hours", "setting": "Cohort 1, escalated to 4.5 mg, Day 80, baseline 125.233", "result": 189.435, "unit": "h*mIU/L"}, {"measurement": "C-peptide AUC(0-3 h) during MMTT, mean", "setting": "Cohort 2 (2-10 mg QW), Day 108, baseline 3604.1", "result": 3147.4, "unit": "pmol·h/L"}, {"measurement": "C-peptide AUC(0-3 h) during MMTT, change from baseline", "setting": "Cohort 2, Day 108", "result": -897.4, "unit": "pmol·h/L"}, {"measurement": "Disposition index, change from baseline", "setting": "Cohort 2, Day 108", "result": "−0.198"}, {"measurement": "First PH ISI-S (first phase Stumvoll Index), mean", "setting": "Cohort 2, Day 108", "result": "−19372.347"}, {"measurement": "First PH ISI-S, change from baseline", "setting": "Cohort 2, Day 108", "result": 11985.334}, {"measurement": "Glucagon AUC(0-3 h) during MMTT, change from baseline", "setting": "Cohort 2, Day 108", "result": -40.55, "unit": "pmol·h/L"}, {"measurement": "Glucose AUC(0-3 h) during MMTT, change from baseline", "setting": "Cohort 2, Day 108", "result": -15.73, "unit": "mmol·h/L"}, {"measurement": "HOMA2-B, change from baseline", "setting": "Cohort 2, Day 108", "result": 3.824}, {"measurement": "HOMA2-IR, change from baseline", "setting": "Cohort 2, Day 108", "result": "−1.071"}, {"measurement": "ISI-M (Matsuda Index), change from baseline", "setting": "Cohort 2, Day 108", "result": 5.905}, {"measurement": "Oxyntomodulin AUC(0-3 h) during MMTT, change from baseline", "setting": "Cohort 2, Day 108", "result": -49.843, "unit": "pmol·h/L"}, {"measurement": "Second PH ISI-S, change from baseline", "setting": "Cohort 2, Day 108", "result": 2252.292}, {"measurement": "Disposition index, mean", "setting": "Cohort 2, Day 108, baseline 1.276", "result": 1.265}, {"measurement": "HOMA2-IR, mean", "setting": "Cohort 2, Day 108, baseline 2.7", "result": 1.325}, {"measurement": "ISI-M (Matsuda Index), mean", "setting": "Cohort 2, Day 108, baseline 4.616", "result": 10.7}, {"measurement": "HOMA2-B, mean", "setting": "Cohort 2, Day 108, baseline 9.108", "result": 12.077}, {"measurement": "Glucose AUC(0-3 h) during MMTT, mean", "setting": "Cohort 2, Day 108, baseline 38.27", "result": 23.74, "unit": "mmol·h/L"}, {"measurement": "Glucagon AUC(0-3 h) during MMTT, mean", "setting": "Cohort 2, Day 108, baseline 39.89", "result": 7.61, "unit": "pmol·h/L"}, {"measurement": "Oxyntomodulin AUC(0-3 h) during MMTT, mean", "setting": "Cohort 2, Day 108, baseline 124.741", "result": 66.077, "unit": "pmol·h/L"}, {"measurement": "Second PH ISI-S (second phase Stumvoll Index), mean", "setting": "Cohort 2, Day 108, baseline −5889.19", "result": "−3593.001"}, {"measurement": "MMTT C-peptide AUC 0-3 hours, approximate decrease from baseline", "setting": "[2]", "result": "~13", "unit": "%"}, {"measurement": "MMTT glucagon AUC 0-3 hours, approximate decrease from baseline", "setting": "[2]", "result": "~81", "unit": "%"}, {"measurement": "MMTT glucose AUC 0-3 hours, approximate decrease from baseline", "setting": "[2]", "result": "~38", "unit": "%"}, {"measurement": "MMTT insulin AUC 0-3 hours, approximate decrease from baseline", "setting": "[2]", "result": "~10", "unit": "%"}, {"measurement": "Matsuda index (ISI-M), approximate increase from baseline", "setting": "[2]", "result": "approximately 132%"}, {"measurement": "MMTT insulin area under the curve 0-3 hours", "setting": "Cohort 2, escalated to 10.0 mg, Day 108, baseline 77.692", "result": 69.847, "unit": "h*mIU/L"}, {"measurement": "sMMTT total cholesterol levels", "setting": "Cohort 2 doses (FIG. 7b)", "result": "substantially reduced"}, {"measurement": "sMMTT HDL cholesterol levels", "setting": "Cohort 2 doses (FIG. 7e)", "result": "substantially reduce"}, {"measurement": "sMMTT LDL cholesterol levels", "setting": "Cohort 2 doses (FIG. 7f)", "result": "substantially reduce"}, {"measurement": "sMMTT triglyceride levels", "setting": "Cohort 2 doses (FIG. 7h)", "result": "substantially reduce"}, {"measurement": "reduction of glucagon secretion from baseline in response to mixed meals", "setting": "dose up to 4.5 mg", "result": "greater than 50%"}, {"measurement": "reduction of glucagon secretion from baseline in response to mixed meals", "setting": "dose up to 10 mg", "result": "greater than 80%"}]}
